By IC50 is commonly meant the point on the concentration scale where inhibition reaches its midpoint. Low readings indicate higher potency, high ones lower potency.

Each structure is given as a SMILES string.

The subject of one experiment is tumor burden. The conditions noted are these: earlier studies of the inventors; cited from earlier work.
The test system of another experiment is NCI60 cancer cell lines. The following applies: earlier studies of the inventors; cited from earlier work.
A further experiment deals with RPA194. The experiment is described as follows: Determination of RPA194 IC50 (immunofluorescence image analysis of RPA194 degradation). The conditions noted are these: U2OS cells, 3 h treatment, 0.1-10 μM, fold change to control, three-parameter fit. The experiment is classed as cell-based. The text has this:
(§1) Immunofluorescence, Epifluorescence Microscopy and Image Analysis. […] Cells were stained for RPA194 (C-1, Santa Cruz Biotechnology) and NCL (4E2, Abeam). […] DNA was counterstained with DAPI (Invitrogen). Images were captured using Axioplan2 fluorescence microscope (Zeiss) equipped with AxioCam HRc CCD-camera and AxioVision 4.5 software using EC Plan-Neofluar 20×/0.75 objective (Zeiss). […] Hue saturation and brightness range were defined individually for RPA194 and NCL. All values were normalized to the DNA content. Two-four fields of each treatment were recorded and quantification was based on an average of 200 cells.
Determination of RPA194 and NCL IC50. U2OS cells grown on coverslips were treated the compounds at 0.1, 0.5, 1, 5 and 10 μM, or vehicle (DMSO)-treated for 3 h and fixed and stained as above. All compounds, except when indicated, were tested in duplicate independent biological experiments Immunostaining for NCL and RPA194 was conducted separately, and cells were counterstained for DNA. Two-four fields of each treatment were captured using epifluorescence microscopy as above, and contained on average of 200 cells/analysis. […] Hue saturation and brightness range were defined individually for RPA194 and NCL, and all values were normalized to the DNA content.

The next experiment concerns NCL. The experiment can be described thus: Determination of NCL IC50 (loss of NCL nucleolar intensity, immunofluorescence image analysis). The experiment is classed as cell-based. The conditions noted are these: U2OS cells, 3 h treatment, 0.1-10 μM, fold change to control, three-parameter fit.
Text: as §1
Determination of RPA194 and NCL IC50. […] All compounds, except when indicated, were tested in duplicate independent biological experiments Immunostaining for NCL and RPA194 was conducted separately, and cells were counterstained for DNA. Two-four fields of each treatment were captured using epifluorescence microscopy as above, and contained on average of 200 cells/analysis. […] Hue saturation and brightness range were defined individually for RPA194 and NCL, and all values were normalized to the DNA content.

As to `CN(C)CCNC(=O)c1cccn2c(=O)c3cc4ccccc4cc3nc12` [BMH-21, 12H-Benzo[g]pyrido[2,1-b]quinazoline-4-carboxamide, N-[2(dimethylamino)ethyl]-12-oxo], the “tumor burden in mouse xenograft assays” value in the experiment with tumor burden is reported as “reduced tumor burden”. In the experiment with NCI60 cancer cell lines, the “anticancer activity in NCI60 cancer cell lines” value was “broad and potent anticancer activity”.

On to `CCN(CC)C1CCN(C(=O)c2cccn3c(=O)c4cc5ccccc5cc4nc23)C1` (stereo not drawn) [Compound 19, 4-[3-(diethylamino)pyrrolidine-1-carbonyl]-12H-benzo[g]pyrido[2,1-b]quinazoline-12-one], for which the IC50 is 32 µM in the experiment with RPA194 and 11 µM in the experiment with NCL.

Turning to `CN1CC(NC(=O)c2cccn3c(=O)c4cc5ccccc5cc4nc23)C1` [Compound 29, N-(1-methylazetidin-3-yl)-12-oxo-12H-benzo[g]pyrido[2,1-b]quinazoline-4-carboxamide], the IC50 in the experiment on RPA194 amounted to 0.9 µM; in the experiment with NCL, 0.47 µM.

With `CC(C)(N)CNC(=O)c1cccn2c(=O)c3cc4ccccc4cc3nc12` [Compound 30, N-(2-amino-2-methyl-propyl)-12-oxo-12H-benzo[g]pyrido[2,1-b]quinazoline-4-carboxamide], the IC50 with RPA194 came out at 0.27 µM; in the experiment on NCL it was 0.2 µM.

Turning to `CN(C)C(C)(C)CNC(=O)c1cccn2c(=O)c3cc4ccccc4cc3nc12` [Compound 31, N-[2-(dimethylamino)-2-methyl-propyl]-12-oxo-12H-benzo[g]pyrido[2,1-b]quinazoline-4-carboxamide], the values for the 50% inhibitory concentration (IC50) in the experiment on RPA194 and in the experiment on NCL were 0.16 µM and 0.14 µM, respectively.

Take `CC(N)CNC(=O)c1cccn2c(=O)c3cc4ccccc4cc3nc12` (stereo not drawn) [Compound 32, N-(2-aminopropyl)-12-oxo-12H-benzo[g]pyrido[2,1-b]quinazoline-4-carboxamide]: the IC50 in the experiment on RPA194 and with NCL was 0.1 µM each time.

As for `C[C@@H](N)CNC(=O)c1cccn2c(=O)c3cc4ccccc4cc3nc12` [Compound 33, N-[(2R)-2-aminopropyl]-12-oxo-12H-benzo[g]pyrido[2,1-b]quinazoline-4-carboxamide], the IC50 in the experiment on RPA194 was found to be 0.11 µM; in the experiment with NCL, 0.81 µM.

With `C[C@H](N)CNC(=O)c1cccn2c(=O)c3cc4ccccc4cc3nc12` [Compound 35, N-[(2S)-2-aminopropyl]-12-oxo-12H-benzo[g]pyrido[2,1-b]quinazoline-4-carboxamide], the half-inhibitory concentration (IC50) came to 0.12 µM in the experiment with RPA194 and 0.17 µM in the experiment with NCL.

Consider `O=C(NCCc1ccncc1)c1cccn2c(=O)c3cc4ccccc4cc3nc12` [Compound 37, 12-oxo-N-[2-(4-pyridyl)ethyl]-12H-benzo[g]pyrido[2,1-b]quinazoline-4-carboxamide], for which the IC50 is 3.5 µM in the experiment on RPA194 and over 100 µM with NCL.

The record behind these values is US11001581B2, “Compounds which inhibit RNA polymerase, compositions including such compounds, and their use” (THE JOHNS HOPKINS UNIVERSITY, priority 2014, dated 2021).
